For data set [1] the following is noted: in vivo; cited from earlier work.
For data set [2], the system named is DIO mice. The data set can be described thus: IPGTT in DIO (diet induced obese) mice. Format: in vivo. The settings on record: 5 days after dosing. How it is done: (§1) The experiment described in Example 1 was repeated in DIO (diet induced obese) mice following dosing of CNTO 530 (0.3 mg/kg). This murine model is believed to be more representative of the human disease since the mice become diabetic after being fed a high fat diet (Purina TestDiet #58126 consisting of 60.9% kcal fat and 20.8% kcal carbohydrates). As described in Example 1, an IPGTT was done on the day of dosing and seven days after dosing. The time points during the IPGTT were 15, 30, 60, 90, 120, 150, and 180 minutes after glucose challenge. After the IPGTT was completed on day 7, the mice were sacrificed and whole blood (in EDTA) was collected via cardiac puncture for hematology studies.
(§2) Mice (DIO; n=7) were fasted overnight and fasting blood glucose (FBG) was measured. The animals were randomized based upon FBG. The mice were dosed intravenously with CNTO 530 (0.3 mg/kg) and given glucose intraperitonealy (0.5 mg/g) ten minutes later. Blood glucose was measured at various times (10, 20, 30, 60, 90, 120, 150, 180 minutes after glucose). The IPGTTs were repeated 7, 14, 21, 28, and 35 days after that initial single dose. […]
(§3) Mice (DIO; n=7) were fasted overnight and fasting blood glucose (FBG) was measured. […]
as §3

For data set [3], the system named is DIO mice. As to the kind of experiment: hematology (hemoglobin, reticulocytes) in DIO mice. In kind it is in vivo. The settings on record: DIO mice, 0.03, 0.1, 0.3 mg/kg i.v., five days after dosing. How it is done:
as §1, §2, §3, §3

Data set [4] concerns DIO mice. As to the kind of experiment: fasting blood glucose in DIO mice. In kind it is in vivo. The settings on record: DIO mice, 0.03, 0.1, 0.3 mg/kg i.v., 5 days after dosing. How it is done: Mice (DIO; n=7) were fasted overnight and fasting blood glucose (FBG) was measured. The animals were randomized based upon FBG and dosed intravenously with EPO (0.03, 0.1, 0.3 mg/kg). An IPGTT (as described above) was done 5 days after dosing. The animals were sacrificed after the IPGTT and whole blood was collected for hematology measurements.
Mice (DIO; n=7) were fasted overnight and fasting blood glucose (FBG) was measured. The animals were randomized based upon FBG and dosed intravenously with darbepoetin (0.01, 0.03, 0.1 mg/kg). An IPGTT (as described above) was done 7 days after dosing. The animals were sacrificed after the IPGTT and whole blood was collected for hematology measurements.

The test system of data set [5] is patients with baseline HbA1C 6.0 or higher. As to the kind of experiment: datamining of clinical data (GE Clinical Data Services EMR database), patients prescribed EPO. In kind it is in vivo, human. The following applies: for magnitude of HbA1C decline: first 3 months after EPO; for fasting blood glucose after EPO: end of time course. The source says:
GE Healthcare's Clinical Data Services database contains de-identified, normalized, longitudinal, patient-level Electronic Medical Record data from nearly to 4,000 US based physicians practicing in ambulatory setting who use GE Centricity EMR system. This database contains data on >4.7M patient lives. Average follow up time is approximately 3 years. The database contains information on Patient demographics, medical history, visit type, clinical observations (including Diagnosis codes), laboratory test results and medications prescribed. JNJ has purchased a license to this dataset and mined it to look for outcomes on diabetic parameters in patients who were prescribed EPO for anemia.
Population was further filtered to identify patients with Pre-EPO measurements followed by post-EPO measurements on the following variables of interest • Blood glucose, fasting • Hemoglobin A1c as % of total hemoglobin • Hemoglobin, blood • Hematocrit, blood
Patients with at least 1 pre- (up to 60 days prior) and 1 post- (up to 6 months after) EPO treatment measurements were considered for analysis. Number of patients meeting this criterion varied in numbers for different variables and time zones. Patients who were on EPO medication and also had mean HbA1c value of 6.0 or higher were considered as diabetic.

The conditions of data set [6]: cited from earlier work.
The test system of data set [7] is patients with end-stage renal disease. The settings on record: cited from earlier work.
Data set [8] relates to EPO dependent UT-7/EPO cell line. The data set can be described thus: in vitro bioactivity assay: viability of rHuEPO-starved UT-7/EPO cells (MTS). In kind it is cell-based, human. The settings on record: for activity compared with rHuEPO: in vitro cell proliferation assay. Here is the method: The activity of EMP-Hinge core mimetibody was first tested in an in vitro bioactivity assay. For this assay, the EPO dependent UT-7/EPO cell line, derived from a patient with acute megakaryoblastic leukemia, was used (Komatsu et al., 1993, Blood, vol. 82 (2), 456-464). These cells undergo programmed cell death 48 to 72 hours after withdraw from media supplemented with rHuEPO. Cells that have been incubated in the absence of rHuEPO for 24 hours can be saved if treated with rHuEPO or an EPOR agonist. EMP-Hinge core mimetibody was added to cells starved without rHuEPO and cell viability was determined 48 hours after treatment using the tetrazolium compound MTS (CellTiter 96 Aqueous One Solution, Promega) that is metabolized by living cells to yield a product with an absorbance that can be measured. […] In addition, these same cells were stimulated with EMP-Hinge core mimetibody and tyrosine phosphorylation patterns visualized by running cell lysate through a polyacrylamide gel.

For another data set, the system named is normal mice. The data set can be described thus: effects on erythropoiesis (hematocrit) in normal mice. The settings on record: dosed equally / equal activity units. In kind it is in vivo. The source says: (§4) In vivo studies were done in normal mice to compare the half-life of EMP-Hinge core mimetibody to that of rHuEPO and to compare their effects on erythropoiesis.

Data set [9] is described as follows: serum concentrations by ELISA, half-life in normal mice. In kind it is in vivo. Here is the method:
as §4
The serum concentrations of both rHuEPO and EMP-Hinge core mimetibody were measured by ELISA.
(ELISA stands for enzyme-linked immunosorbent assay.)

The subject of data set [10] is cells that express the EPO receptor. The data set can be described thus: complement lysis of cells that express the EPO receptor. In kind it is cell-based. The following applies: preliminary studies. The text has this:
It has been shown that mutation of two […] (L) residues, L234 & L235, in the IgG1 lower hinge region to alanine (A) will abrogate the ability of the immunoglobulin to mediate complement dependent cytotoxicity (CDC) and antibody dependant cellular cytotoxicity (ADCC) (Hezereh et al., 2001, J. Virol., vol. 75 (24), 12161-68). […] This may be due to the low number of receptors that are found on erythroid progenitor cells. In addition the in vivo expansion of erythroid progenitors as evidenced by significant increases in hematocrit supports the possible functional irrelevance of immune effector functions. However, while no effector function associated affects have been observed, there remains an interest in introducing these mutations as a precautionary step.

A further data set concerns the target T1, EPO receptor (Homo sapiens, UniProt P19235).
T1 sequence (P19235 25-508): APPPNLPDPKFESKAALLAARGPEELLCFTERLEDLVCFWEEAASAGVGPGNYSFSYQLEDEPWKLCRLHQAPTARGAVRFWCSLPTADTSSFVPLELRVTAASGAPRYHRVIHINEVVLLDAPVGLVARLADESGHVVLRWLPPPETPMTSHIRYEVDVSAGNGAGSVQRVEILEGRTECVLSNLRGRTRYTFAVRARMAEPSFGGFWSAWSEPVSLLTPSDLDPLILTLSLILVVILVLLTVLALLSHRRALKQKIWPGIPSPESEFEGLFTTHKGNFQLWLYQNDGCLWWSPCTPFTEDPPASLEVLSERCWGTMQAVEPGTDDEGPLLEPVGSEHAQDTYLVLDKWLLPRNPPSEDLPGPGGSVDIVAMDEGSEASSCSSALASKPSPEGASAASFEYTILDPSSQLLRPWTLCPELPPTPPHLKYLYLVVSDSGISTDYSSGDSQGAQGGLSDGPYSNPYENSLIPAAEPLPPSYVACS
The data set can be described thus: competition with 125I-labeled EPO for binding to the EPO receptor.

The conditions of data set [11]: 50% serum; cited from earlier work.
[12] abbreviates: baseline HbA1C 7%-8% (7.38%), first month.
[13] abbreviates: baseline HbA1C 8%-9% (8.35%), first month.
[14] abbreviates: baseline HbA1C >9% (10.18), first month.
Where [15] appears, read: longitudinal patients, baseline under 126 mg/dL (102 mg/dL).
[16] abbreviates: UT-7/EPO cells, viability 48 hours after treatment.
Setting [17] is: listed as EMP-hinge core mimetibody.

Where no end group is shown, it is not given here. A value given as a limit tells only on which side of the number the result lay.

On to CERA: Roche's pegylated epoetin, for which, in data set [1], the “half-life compared with epoetin / EPO” value is “longer half life”.

In the case of “EPO: glycoprotein hormone of 165 amino acids and four carbohydrate chains, primary regulator of erythropoiesis”, the “glucose tolerance (IPGTT)” value in the data set with DIO mice [2] (0.03 mg/kg i.v.) and in the data set on DIO mice [2] (0.3 mg/kg i.v.) was “modest improvement” each time. In addition, in the data set with DIO mice [3], the hemoglobin result is listed as “not significantly elevated”. Further, the reticulocytes entry with DIO mice [3] is given as “significantly increased in a dose dependent manner”. In addition, in the data set on DIO mice [4], the fasting blood glucose result is “no statistically significant reduction”. Moreover, the “decline in HbA1C level” value in data set [5] (baseline HbA1C 6.0%-7.0%) was “no decline”; in data set [5] (setting [12]), 0.39%; in [5] (setting [13]), 0.84%; in data set [5] (setting [14]), “approximately 1.69%”. The “HbA1C level after EPO” value in data set [5] (setting [12]) was found to be 6.99%; in data set [5] (setting [13]), 7.51%; in data set [5] (setting [14]) it was 8.49%; in [5] (longitudinal dataset, baseline HbA1C 7-8% (7.47%), first 3 months), 7.01%; in data set [5] (longitudinal dataset, baseline HbA1C >8 (9.41%), first 3 months) it was 8.46%. The “magnitude of HbA1C decline” value in [5] (longitudinal dataset, baseline HbA1C 7-8% (7.47%)) came to 0.46%; in data set [5] (longitudinal dataset, baseline HbA1C >8 (9.41%)), 0.95%. Besides, the “further HbA1C change” value in data set [5] (longitudinal dataset, baseline HbA1C 7-8%, next 3 months) is listed as “no significant further change”; in data set [5] (longitudinal dataset, baseline HbA1C >8, next 3 month period) it was “no further decline”. Besides, the “fasting blood glucose after EPO” value was 145 mg/dL in data set [5] (longitudinal patients, baseline FBG>126 mg/dL (173 mg/dL)) and 107 mg/dL in [5] (setting [15]). The “decline in fasting blood glucose, average” value in data set [5] (longitudinal patients, baseline FBG>126 mg/dL (173 mg/dL), entire time course) came out at 28 mg/dL. In [5] (longitudinal patients, baseline under 126 mg/dL), the “decline in FBG level” value is “do not show any decline”. Further, the “increase in FBG at the end of the time course” value in data set [5] (setting [15]) was 5 mg/dL. For the same substance, the “HbA1C level drop, average” value in data set [5] (patients with baseline HbA1C above 6.0, first month after EPO administration) is given as 0.5%. Also, the “decrease in fasting blood glucose concentration” value in data set [5] (patients with baseline HbA1C above 6.0, maximum decline over a 4 month period) is listed as “approximately 30 mg.dL”. This substance also returned an improvement in hemoglobin in data set [5] (patients, clinical data) below 1%. Besides, in [5] (patients, over a 3 month period after initial EPO administration, then plateau), the Hemoglobin level result is “increases steadily”. Besides, in [6] (subcutaneous administration), the “time to peak serum levels” value is 5 to 24 h. For the same substance, the “time detectable plasma levels are maintained” value in [6] (within the therapeutic dose range) is given as “at least 24 hours”. Besides, the “blood triglyceride, total cholesterol and LDL levels” value in data set [7] was “concomitant improvement”. Further, the insulin resistance entry in data set [7] is “improve insulin resistance”.

Consider “EMP-Hinge core mimetibody: V-EMP-1-linker-hinge core-CH2-CH3 construct of IgG1 or IgG4 subclass, SEQ ID NOS: 82-89 (QIQGGTYSCHFGPLTWVCKPQGG; cysteine pairing not given here; also: fused via linker to hinge core-CH2-CH3 of IgG1 or IgG4)”, for which the “potency on a molar basis, fold greater than the EMP-1 peptide” value is 500 fold in data set [8] (setting [16]) and “more than 500 fold” in data set [8] (UT-7/EPO cells, viability 48 hours after treatment, listed as EMP-hinge core mimetibody). The “potency on a molar basis, fold less than rHuEPO” value in [8] (setting [16]) is recorded as 5 fold. Moreover, the “activity compared with rHuEPO” value in data set [8] is given as “in the range of rHuEPO”; in data set [8] (setting [17]), “substantially similar to recombinant HuEPO”. Also, the “duration of response compared to rHuEPO” value with normal mice is reported as “prolonged”; with normal mice (setting [17]), “maintained for a longer period”. For the same substance, the “maximal response (hematocrit) compared to rHuEPO” value in the data set with normal mice is listed as “higher maximal response”; in the data set on normal mice (setting [17]), “significantly higher maximal hematocrit”. The “approximate half-life relative to rHuEPO” value in data set [9] is “at least several times that of rHuEPO”. The complement lysis entry in data set [10] is given as “does not mediate complement lysis”.

In the case of “EMP-1: 20 amino acid peptide with no sequence homology to HuEPO that activates the EPO receptor as a dimer (GGTYSCHFGPLTWVCKPQGG)”, the “competition with 125I-labeled EPO for binding to the EPO receptor” value with EPO receptor is listed as “competes”. The ex-vivo half-life in data set [11] is 8 h.

Values taken from patent US20100183592A1, “HUMAN EPO RECEPTOR AGONISTS, COMPOSITIONS, METHODS AND USES FOR PREVENTING OR TREATING GLUCOSE INTOLERANCE RELATED CONDITIONS” (priority 2006, published 2010).
